# pEC50: −log10 of the molar value. Values joined by “and” are separate entries in the source; they are usually repeats but may differ in a detail not shown here. Equal entries are not always repeated.
# Legend:
# [1] = tested on: SARS-CoV-2 (Beta, B.1.351); test: microbe, parasite or virus in culture; assay type: cell-based; settings: for % Inhibition: beta
# [2] = tested on: SARS-CoV-2 replicon system (pBAC-SARS-CoV-2-Replicon-Luc); test: microbe, parasite or virus in culture; assay type: cell-based; settings: Severe acute respiratory syndrome coronavirus 2, HEK-293T, 60 h
# [3] = tested on: SARS-CoV-2 (B.1) in Huh7 cells; test: Anti-SARS-CoV-2 activity in Huh7 cells (viral yield by qRT-PCR); assay type: cell-based; settings: B.1, MOI 0.05, 48 h
# [4] = tested on: SARS-CoV-2 (Delta, B.1.617.2); test: microbe, parasite or virus in culture; assay type: cell-based; settings: for % Inhibition: delta
# Vero E6 cells = test: CCK-8 cell viability assay; assay type: cell-based, African green monkey; settings: individual replicate values, Fig.S4
# Procedure, shortened: (§1)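 Vero E6 cells, 20,000/well, exposed to compound at 0–200 μM (0, 0.01, 0.1, 1, 5, 10, 50, 75, 100, 200 μM) for 48 h; viability read by CCK-8 and expressed as percentage versus drug concentration, mean ± SD.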
# [5] = CCK-8 cell viability assay; assay type: cell-based, African green monkey; settings: African green monkey; Vero E6 cells, 48 h, CCK8
# Procedure, shortened: as §1
# SARS-CoV-2 (B.1) = test: Anti-SARS-CoV-2 activity in Vero E6 cells (viral yield by qRT-PCR); assay type: cell-based
smiles,measurement,setting,value
CCC(CC)C(=O)OC[C@H]1O[C@@](C#N)(c2ccc3c(N)ncnn23)[C@H](O)[C@@H]1O [ATV011],pEC50,"[1]; Severe acute respiratory syndrome coronavirus 2, Vero C1008, 48 h, read-out: EC50 in Vero E6 cells, SARS-CoV-2 (Beta, B.1.351)",5.64
same,inhibition at 0.01 µM,"[1]; Severe acute respiratory syndrome coronavirus 2, Vero C1008, beta, 0.01 uM, Vero E6, replicates",0%
same,inhibition at 0.1 µM,"[1]; Severe acute respiratory syndrome coronavirus 2, Vero C1008, beta, 0.1 uM, Vero E6, replicates",0%
same,inhibition at 0.25 µM,"[1]; Severe acute respiratory syndrome coronavirus 2, Vero C1008, beta, 0.25 uM, Vero E6, replicates",0%
same,inhibition at 0.5 µM,"[1]; Severe acute respiratory syndrome coronavirus 2, Vero C1008, beta, 0.5 uM, Vero E6, replicates",0%
same,inhibition at 1 µM,"[1]; Severe acute respiratory syndrome coronavirus 2, Vero C1008, beta, 1 uM, Vero E6, replicates",0%
same,inhibition at 2 µM,"[1]; Severe acute respiratory syndrome coronavirus 2, Vero C1008, beta, 2 uM, Vero E6, replicates",29.7%
same,inhibition at 5 µM,"[1]; Severe acute respiratory syndrome coronavirus 2, Vero C1008, beta, 5 uM, Vero E6, replicates",99.6%
same,inhibition at 10 µM,"[1]; Severe acute respiratory syndrome coronavirus 2, Vero C1008, beta, 10 uM, Vero E6, replicates",99.9%
same,inhibition at 50 µM,"[1]; Severe acute respiratory syndrome coronavirus 2, Vero C1008, beta, 50 uM, Vero E6, replicates",99.9%
same,EC90,"[1]; Severe acute respiratory syndrome coronavirus 2, Vero C1008, read-out: EC90 (Confidence 95%), Vero-E6, Beta B.1.351",2950 nM
same,% Inhibition,"[1]; 0.01 uM, Vero E6, replicates",0%
same,% Inhibition,"[1]; 0.1 uM, Vero E6, replicates",0%
same,% Inhibition,"[1]; 0.25 uM, Vero E6, replicates",0%
same,% Inhibition,"[1]; 0.5 uM, Vero E6, replicates",0%
same,% Inhibition,"[1]; 1 uM, Vero E6, replicates",0%
same,% Inhibition,"[1]; 2 uM, Vero E6, replicates",22.548%
same,% Inhibition,"[1]; 5 uM, Vero E6, replicates",99.5042%
same,% Inhibition,"[1]; 10 uM, Vero E6, replicates",99.9468%
same,% Inhibition,"[1]; 50 uM, Vero E6, replicates",99.9524%
same,pEC50,"[2]; read-out: EC50 (Confidence 95%), replicon",6.49
same,EC90,"[2]; read-out: EC90 (Confidence 95%), replicon",384 nM
same,pEC50,"[3]; Severe acute respiratory syndrome coronavirus 2, Huh-7, read-out: EC50 (Confidence 95%) in Huh7 cells",6.08
same,EC90,"[3]; Severe acute respiratory syndrome coronavirus 2, Huh-7, read-out: EC90 (Confidence 95%) in Huh7 cells",1010 nM
same,pEC50,"[4]; Severe acute respiratory syndrome coronavirus 2, Vero C1008, 48 h, read-out: EC50 in Vero E6 cells, SARS-CoV-2 (Delta, B.1.617.2)",6.39
same,inhibition at 0.01 µM,"[4]; Severe acute respiratory syndrome coronavirus 2, Vero C1008, delta, 0.01 uM, Vero E6, replicates",0%
same,inhibition at 0.1 µM,"[4]; Severe acute respiratory syndrome coronavirus 2, Vero C1008, delta, 0.1 uM, Vero E6, replicates",0%
same,inhibition at 0.25 µM,"[4]; Severe acute respiratory syndrome coronavirus 2, Vero C1008, delta, 0.25 uM, Vero E6, replicates",18.8%
same,inhibition at 0.5 µM,"[4]; Severe acute respiratory syndrome coronavirus 2, Vero C1008, delta, 0.5 uM, Vero E6, replicates",74.2%
same,inhibition at 1 µM,"[4]; Severe acute respiratory syndrome coronavirus 2, Vero C1008, delta, 1 uM, Vero E6, replicates",83.5%
same,inhibition at 2 µM,"[4]; Severe acute respiratory syndrome coronavirus 2, Vero C1008, delta, 2 uM, Vero E6, replicates",94.4%
same,inhibition at 5 µM,"[4]; Severe acute respiratory syndrome coronavirus 2, Vero C1008, delta, 5 uM, Vero E6, replicates",94.6%
same,inhibition at 10 µM,"[4]; Severe acute respiratory syndrome coronavirus 2, Vero C1008, delta, 10 uM, Vero E6, replicates",99.9%
same,inhibition at 50 µM,"[4]; Severe acute respiratory syndrome coronavirus 2, Vero C1008, delta, 50 uM, Vero E6, replicates",100%
same,EC90,"[4]; Severe acute respiratory syndrome coronavirus 2, Vero C1008, read-out: EC90 (Confidence 95%), Vero-E6, Delta B.1.617.2",842 nM
same,% Inhibition,"[4]; 0.01 uM, Vero E6, replicates",0%
same,% Inhibition,"[4]; 0.1 uM, Vero E6, replicates",0%
same,% Inhibition,"[4]; 0.25 uM, Vero E6, replicates",20.35%
same,% Inhibition,"[4]; 0.5 uM, Vero E6, replicates",62.851%
same,% Inhibition,"[4]; 1 uM, Vero E6, replicates",82.2323%
same,% Inhibition,"[4]; 2 uM, Vero E6, replicates",91.97%
same,% Inhibition,"[4]; 5 uM, Vero E6, replicates",91.6601%
same,% Inhibition,"[4]; 10 uM, Vero E6, replicates",99.4778%
same,% Inhibition,"[4]; 50 uM, Vero E6, replicates",99.7579%
same,cell viability (% of control),"Vero E6 cells; 0.01 μM compound, 0.01 µM",118.751 % of control and 91.986 % of control and 93.878 % of control
same,cell viability (% of control),"Vero E6 cells; 0.1 μM compound, 0.1 µM",121.196 % of control and 124.104 % of control and 115.797 % of control
same,cell viability (% of control),"Vero E6 cells; 1 μM compound, 1 µM",117.043 % of control and 115.382 % of control and 124.473 % of control
same,cell viability (% of control),"Vero E6 cells; 2 μM compound, 2 µM",120.919 % of control and 113.536 % of control and 114.367 % of control
same,cell viability (% of control),"Vero E6 cells; 5 μM compound, 5 µM",138.178 % of control and 143.9 % of control and 139.562 % of control
same,cell viability (% of control),"Vero E6 cells; 10 μM compound, 10 µM",141.085 % of control and 129.595 % of control and 122.535 % of control
same,cell viability (% of control),"Vero E6 cells; 50 μM compound, 50 µM",76.4283 % of control and 65.5331 % of control and 77.184 % of control
same,CC50 at 48 h,[5],> 50000 nM
same,% Inhibition,"SARS-CoV-2 (B.1); 0.1 μM, replicates, sheet Fig.S3",0%
same,% Inhibition,"SARS-CoV-2 (B.1); 0.5 μM, replicates, sheet Fig.S3",0%
same,% Inhibition,"SARS-CoV-2 (B.1); 1 μM, replicates, sheet Fig.S3",78.517%
same,% Inhibition,"SARS-CoV-2 (B.1); 2 μM, replicates, sheet Fig.S3",79.6525%
same,% Inhibition,"SARS-CoV-2 (B.1); 5 μM, replicates, sheet Fig.S3",91.2053%
same,% Inhibition,"SARS-CoV-2 (B.1); 10 μM, replicates, sheet Fig.S3",90.9393%
same,% Inhibition,"SARS-CoV-2 (B.1); B.1, 0.01 uM, Vero E6, replicates",0%
same,% Inhibition,"SARS-CoV-2 (B.1); B.1, 0.1 uM, Vero E6, replicates",0%
same,% Inhibition,"SARS-CoV-2 (B.1); B.1, 0.25 uM, Vero E6, replicates",0%
same,% Inhibition,"SARS-CoV-2 (B.1); B.1, 0.5 uM, Vero E6, replicates",0%
same,% Inhibition,"SARS-CoV-2 (B.1); B.1, 1 uM, Vero E6, replicates",0%
same,% Inhibition,"SARS-CoV-2 (B.1); B.1, 2 uM, Vero E6, replicates, 2 µM",3.841% and 72.4491%
same,% Inhibition,"SARS-CoV-2 (B.1); B.1, 5 uM, Vero E6, replicates, 5 µM",99.7181%
same,% Inhibition,"SARS-CoV-2 (B.1); B.1, 10 uM, Vero E6, replicates, 10 µM",99.9819%
same,% Inhibition,"SARS-CoV-2 (B.1); B.1, 50 uM, Vero E6, replicates, 50 µM",99.9874%
same,inhibition at 0.1 µM,"SARS-CoV-2 (B.1); Severe acute respiratory syndrome coronavirus 2, Vero C1008, 0.1 μM, replicates, sheet Fig.S3",0%
same,inhibition at 0.5 µM,"SARS-CoV-2 (B.1); Severe acute respiratory syndrome coronavirus 2, Vero C1008, 0.5 μM, replicates, sheet Fig.S3",0%
same,inhibition at 1 µM,"SARS-CoV-2 (B.1); Severe acute respiratory syndrome coronavirus 2, Vero C1008, 1 μM, replicates, sheet Fig.S3",77.4%
same,inhibition at 2 µM,"SARS-CoV-2 (B.1); Severe acute respiratory syndrome coronavirus 2, Vero C1008, 2 μM, replicates, sheet Fig.S3",78%
same,inhibition at 5 µM,"SARS-CoV-2 (B.1); Severe acute respiratory syndrome coronavirus 2, Vero C1008, 5 μM, replicates, sheet Fig.S3",93.5%
same,inhibition at 10 µM,"SARS-CoV-2 (B.1); Severe acute respiratory syndrome coronavirus 2, Vero C1008, 10 μM, replicates, sheet Fig.S3",93.2%
same,inhibition at 0.01 µM,"SARS-CoV-2 (B.1); Severe acute respiratory syndrome coronavirus 2, Vero C1008, B.1, 0.01 uM, Vero E6, replicates",0%
same,inhibition at 0.1 µM,"SARS-CoV-2 (B.1); Severe acute respiratory syndrome coronavirus 2, Vero C1008, B.1, 0.1 uM, Vero E6, replicates",0%
same,inhibition at 0.25 µM,"SARS-CoV-2 (B.1); Severe acute respiratory syndrome coronavirus 2, Vero C1008, B.1, 0.25 uM, Vero E6, replicates",0%
same,inhibition at 0.5 µM,"SARS-CoV-2 (B.1); Severe acute respiratory syndrome coronavirus 2, Vero C1008, B.1, 0.5 uM, Vero E6, replicates",0%
same,inhibition at 1 µM,"SARS-CoV-2 (B.1); Severe acute respiratory syndrome coronavirus 2, Vero C1008, B.1, 1 uM, Vero E6, replicates",0%
same,inhibition at 5 µM,"SARS-CoV-2 (B.1); Severe acute respiratory syndrome coronavirus 2, Vero C1008, B.1, 5 uM, Vero E6, replicates",99.5%
same,inhibition at 10 µM,"SARS-CoV-2 (B.1); Severe acute respiratory syndrome coronavirus 2, Vero C1008, B.1, 10 uM, Vero E6, replicates",99.9%
same,inhibition at 50 µM,"SARS-CoV-2 (B.1); Severe acute respiratory syndrome coronavirus 2, Vero C1008, B.1, 50 uM, Vero E6, replicates",99.9%
same,EC90,"SARS-CoV-2 (B.1); Severe acute respiratory syndrome coronavirus 2, Vero C1008, read-out: EC90 (Confidence 95%)",2640 nM
same,pEC50,"SARS-CoV-2 (B.1); Severe acute respiratory syndrome coronavirus 2, Vero C1008, MOI 0.05, 48 h",5.67

# Reference: paper PMC9161374 (Science Translational Medicine, 2022)
